Key:
[1] = tested on: anesthetized rats (evoked responses of anterior tibial muscle); assay: In vivo neuromuscular block and cardiovascular side effects, anesthetized rat (Example 8, Table 3); conditions: for ED50: Rattus norvegicus, iv; for VB (vagal block) / ΔBP (change in arterial blood pressure) / ΔH (change in heart rate) / RI (recovery index) / Onset: rat; for VB (vagal block) / ΔBP (change in arterial blood pressure) / ΔH (change in heart rate): at 80-85% neuromuscular blocking dose; for RI (recovery index): spontaneous recovery, 25-75% neuromuscular response; for Onset: time to 80-85% neuromuscular block
From the text: The neuromuscular blocking activity and other effects (e.g. cardiovascular side effects) of selected agents were investigated on several different experimental animals. Justification for this approach lies in the commonly known fact that the pharmacodynamic and pharmacokinetic properties of these agents are markedly variable from species to species. Therefore, the most important aspects of the projected therapeutic utility of these agents, e.g., neuromuscular blocking potency, onset and duration of action, and side effects cannot be ascertained in “in vitro” preparations or by using only one species of animals.
a) Adult, male albino rats were anesthetized with pentobarbital injected intraperitoneally. The trachea was cannulated for artificial respiration via a small animal respirator. The carotid artery was cannulated for recording blood pressure via a transducer and heart rate by a cardiotachograph on a polygraph. One external jugular vein was cannulated for i.v. drug administration. Neuromuscular function was monitored by electromyography, recording evoked responses from the anterior tibial muscle as a result of supramaximal nerve stimuli consisting of single or “train-of-four” rectangular pulses of 0.1-0.2 msec duration every 10-12 seconds, delivered to the sciatic or common peroneal nerve by a laboratory nerve stimulator. Another mode of stimulation included repeated single stimuli delivered at 0.1 Hz or 1 Hz. […] The agents were dissolved in physiologic saline and injected intravenously at appropriate time intervals. The intensity, onset, and duration of neuromuscular block and its type were determined with each agent. Through administering several doses, the doses corresponding to 50%, 80% and 90% neuromuscular block were determined. All agents were compared with selected standard neuromuscular blocking compounds, e.g. succinylcholine, pancuronium, mivacurium, or rocuronium.
Onset=time in minutes to 80-85% neuromuscular block.
RI=recovery index, minutes, spontaneous recovery, 25-75% neuromuscular response.
VB=vagal block, %, at 80-85% neuromuscular blocking dose.
ΔHR=change in heart rate, %, at 80-85% neuromuscular blocking dose.
ΔBP=change in arterial blood pressure, %, at 80-85% neuromuscular blocking dose.

[2] = tested on: anesthetized juvenile pigs; assay: animal or person; type: in vivo; conditions: pig; for ED50: Sus scrofa, intravenous dose causing 50% neuromuscular block, read-out: ED50; for VB (vagal block) / ΔBP (change in arterial blood pressure) / ΔH (change in heart rate): at 80-85% neuromuscular blocking dose; for RI (recovery index): spontaneous recovery, 25-75% neuromuscular response; for Onset: time to 80-85% neuromuscular block
From the text: Both electromyographic and mechanomyographic responses can be quantified.
The techniques described under a) and b) were employed in other species as needed with the modification that juvenile pigs were initially anesthetized with inhalation of halothane (Table 5) and monkeys were initially sedated with intramuscular ketamine injections prior to inducing and maintaining general anesthesia using pentobarbital and propofol administered intravenously (Table 6).

[3] = tested on: rabbits; assay: In vivo neuromuscular block and cardiovascular side effects, rabbit (Example 8, Table 7); conditions: for ED50: Oryctolagus cuniculus, intravenous dose causing 50% neuromuscular block, read-out: ED50; for ΔBP (change in arterial blood pressure) / ΔH (change in heart rate): at 80-85% neuromuscular blocking dose; for RI (recovery index): spontaneous recovery, 25-75% neuromuscular response; for Onset: time to 80-85% neuromuscular block

## C[N+]1(Cc2ccccc2Br)[C@@H]2CC[C@H]1C[C@@H](OC(=O)CCCC(=O)O[C@H]1C[C@H]3CC[C@@H](C1)[N+]3(C)Cc1ccccc1Br)C2.[Br-].[Br-] (stereo partly drawn) [bis[N-(2-bromobenzyl)tropanium-3α-yl]glutarate dibromide, reference compound]
[1]
  ED50: 1.4 mg/kg
  VB (vagal block): 100%
  ΔBP (change in arterial blood pressure): −9%
  ΔH (change in heart rate): 0%
  RI (recovery index): 3.6 min
  Onset: 2.3 min

## C[N+]1(CC=Cc2ccccc2)[C@@H]2CC[C@H]1C[C@@H](OC(=O)CCCCCCCCCCC(=O)O[C@H]1C[C@H]3CC[C@@H](C1)[N+]3(C)CC=Cc1ccccc1)C2.[Br-].[Br-] (stereo partly drawn) [bis[N-(3-(phenyl)prop-2-enyl)tropanium-3α-yl]1,10-decanedicarboxylate dibromide, reference compound]
[2]
  ED50: 0.17 mg/kg
  VB (vagal block): 27%
  ΔBP (change in arterial blood pressure): −10%
  ΔH (change in heart rate): 0%
  RI (recovery index): 6.4 min
  Onset: 1.60 min

## CCCCC[N+]1(C)[C@@H]2CC[C@H]1C[C@@H](OC(=O)CCCCCCCCC(=O)O[C@H]1C[C@H]3CC[C@@H](C1)[N+]3(C)CCCCC)C2.[Br-].[Br-] (stereo partly drawn) [bis[N-(pentyl)tropanium-3α-yl]sebacate dibromide, reference compound]
[2]
  ED50: 0.3 mg/kg
  VB (vagal block): 50%
  ΔBP (change in arterial blood pressure): 0%
  ΔH (change in heart rate): 0%
  RI (recovery index): 6.9 min
  Onset: 2.00 min

## C[N+]1(Cc2ccccc2)[C@@H]2CC[C@H]1C[C@@H](OC(=O)CCCC(=O)O[C@H]1C[C@H]3CC[C@@H](C1)[N+]3(C)Cc1ccccc1)C2.[Br-].[Br-] (stereo partly drawn) [bis[N-benzyltropanium-3α-yl]glutarate dibromide, reference compound]
[1]
  ED50: 5.5 mg/kg
  VB (vagal block): 100%
  ΔBP (change in arterial blood pressure): −10%
  ΔH (change in heart rate): 0%
  RI (recovery index): 3.7 min
  Onset: 2.5 min

## C[N+]1(Cc2ccccc2)[C@@H]2CC[C@H]1C[C@@H](OC(=O)CCCCCCCCC(=O)O[C@H]1C[C@H]3CC[C@@H](C1)[N+]3(C)Cc1ccccc1)C2.[Br-].[Br-] (stereo partly drawn) [bis[N-benzyltropanium-3α-yl]sebacate dibromide, reference compound]
[3]
  ED50: 0.075 mg/kg
  ΔBP (change in arterial blood pressure): 0%
  ΔH (change in heart rate): 0%
  RI (recovery index): 6 min
  Onset: 2.3 min

## CC[N+]1(C)[C@@H]2CC[C@H]1C[C@@H](OC(=O)CCCCC(=O)O[C@H]1C[C@H]3CC[C@@H](C1)[N+]3(C)CC)C2.[I-].[I-] (stereo partly drawn) [bis[N-ethyltropanium-3α-yl]adipate diiodide, reference compound]
[3]
  ED50: 0.15 mg/kg
  ΔBP (change in arterial blood pressure): 0%
  ΔH (change in heart rate): 0%
  RI (recovery index): 9 min
  Onset: 2.2 min

## C[N+]1(C)[C@@H]2CC[C@H]1C[C@@H](OC(=O)CCCC(=O)O[C@H]1C[C@H]3CC[C@@H](C1)[N+]3(C)C)C2.[I-].[I-] [bis[N-methyltropanium-3α-yl]glutarate diiodide, reference compound]
[1]
  ED50: 2 mg/kg
  VB (vagal block): 100%
  ΔBP (change in arterial blood pressure): 0%
  ΔH (change in heart rate): 0%
  RI (recovery index): 4.2 min
  Onset: 1.2 min

From patent US6376510B1, “Neuromuscular relaxants” (Newlaxant LLC, priority 1997, dated 2002)
